One data set concerns PA. Conditions: cited from earlier work.
In a further data set the test system is CF patients. The note with it: cited from earlier work.
In data set [1] the test system is Pseudomonas aeruginosa (PA) isolates. The data set is described as follows: Clinical Trial I: MIC for PA isolates. The data set is classed as cell-based. The note with it: for MIC50 / MIC90 / MIC: Pseudomonas aeruginosa.
Data set [2] in a line: Clinical Trial II: sputum and plasma aztreonam concentrations. It is filed as in vivo. The note with it: human, sputum, inhaled, 75 mg, sputum aztreonam concentration, median (range), 10 minutes postdose.
Data set [3] concerns Pseudomonas aeruginosa (PA) isolates. Put plainly: Clinical Trial II: MIC of aztreonam for PA isolates. It is filed as cell-based.
[4] abbreviates: Colistin, N = 62, 80 BID/28 days.

Values after ≈ are worked out from the molar mass of the structure shown. Like-named read-outs stand apart in the source and are kept apart here. Marks after values point to notes of the source that are not given here. A value given as a limit tells only on which side of the number the result lay.

Take Colistin: in the data set with PA (setting [4]), the “PA Density Change (Log10)” value was −0.6 Log10. Besides, the “FEV1 Change (relative change in FEV1 % predicted, comparison to control after 28 days of therapy)” value in the data set on CF patients (setting [4]) is 0%^b.
The MIC50 is an inhibitory concentration at the 50% level, which refers to growth in some studies and to a panel of isolates in others. A word on the MIC90: it is the lowest concentration that inhibits either 90% of growth or 90% of the strains tested, depending on the study. `NC[C@H]1O[C@H](O[C@H]2[C@H](O)[C@@H](O[C@H]3O[C@H](CO)[C@@H](O)[C@H](N)[C@H]3O)[C@H](N)C[C@@H]2N)[C@H](N)C[C@@H]1O` [tobramycin]: the “MIC50 and MIC90 of tobramycin for PA isolates, change” value in data set [1] (Days −28 to 56) is at most 4 fold. Also, the MIC50 in data set [1] (isolates of AZLI-BID group, Day −28, read-out: MIC50 of tobramycin for all PA isolates) came out at 1 µg/mL (≈ 2.14 µM); in data set [1] (isolates of AZLI-Pooled group, Day −28, read-out: MIC50 of tobramycin for all PA isolates), 1 µg/mL (≈ 2.14 µM); in data set [1] (isolates of AZLI-TID group, Day −28, read-out: MIC50 of tobramycin for all PA isolates) it was 2 µg/mL (≈ 4.28 µM); in data set [1] (isolates of Placebo group, Day −28, read-out: MIC50 of tobramycin for all PA isolates), 2 µg/mL (≈ 4.28 µM). Also, the MIC90 worked out at 16 µg/mL (≈ 34.2 µM) in data set [1] (isolates of AZLI-BID group, Day −28, read-out: MIC90 of tobramycin for all PA isolates); 32 µg/mL (≈ 68.4 µM) in data set [1] (isolates of AZLI-Pooled group, Day −28, read-out: MIC90 of tobramycin for all PA isolates); 64 µg/mL (≈ 137 µM) in data set [1] (isolates of AZLI-TID group, Day −28, read-out: MIC90 of tobramycin for all PA isolates); 256 µg/mL (≈ 548 µM) in data set [1] (isolates of Placebo group, Day −28, read-out: MIC90 of tobramycin for all PA isolates). In addition, in the data set with PA (Tobramycin 600 TID, N = 36), the “PA Density Change (Log10)” value was −2.0 Log10. The “FEV1 Change (absolute change in FEV1 % predicted, comparison to control after 28 days of therapy)” value in the data set on CF patients (600 TID, N = 36) is on record as 10%^a.
As a reminder, the MIC is the lowest concentration found to suppress growth. On to `C[C@H]1[C@H](NC(=O)/C(=N\OC(C)(C)C(=O)O)c2csc(N)n2)C(=O)N1S(=O)(=O)O` [aztreonam], for which the MIC50 in data set [1] (0 h, read-out: MIC50 of aztreonam for all PA isolates, isolates of AZLI-BID group, Day 0) was 2 µg/mL (≈ 4.59 µM); in data set [1] (0 h, read-out: MIC50 of aztreonam for all PA isolates, isolates of AZLI-Pooled group, Day 0) it was 2 µg/mL (≈ 4.59 µM); in data set [1] (0 h, read-out: MIC50 of aztreonam for all PA isolates, isolates of AZLI-TID group, Day 0) it was 2 µg/mL (≈ 4.59 µM); in data set [1] (0 h, read-out: MIC50 of aztreonam for all PA isolates, isolates of Placebo group, Day 0), at most 1 µg/mL; in data set [3] (read-out: MIC50 of aztreonam for all PA isolates, isolates of AZLI group, baseline), 4 µg/mL; in data set [3] (read-out: MIC50 of aztreonam for all PA isolates, isolates of Placebo group, baseline), 2 µg/mL. Besides, the MIC90 in data set [1] (0 h, read-out: MIC90 of aztreonam for all PA isolates, isolates of AZLI-BID group, Day 0) stood at 64 µg/mL (≈ 147 µM); in data set [1] (0 h, read-out: MIC90 of aztreonam for all PA isolates, isolates of AZLI-Pooled group, Day 0), 32 µg/mL (≈ 73.5 µM); in data set [1] (0 h, read-out: MIC90 of aztreonam for all PA isolates, isolates of AZLI-TID group, Day 0) it was 32 µg/mL (≈ 73.5 µM); in data set [1] (0 h, read-out: MIC90 of aztreonam for all PA isolates, isolates of Placebo group, Day 0) it was 64 µg/mL (≈ 147 µM); in data set [3] (read-out: MIC90 of aztreonam for all PA isolates, isolates of AZLI group, baseline), 128 µg/mL; in data set [3] (read-out: MIC90 of aztreonam for all PA isolates, isolates of Placebo group, baseline) it was 64 µg/mL. In addition, the minimal inhibitory concentration (MIC) in data set [1] (0 h, read-out: Maximum MIC of aztreonam for all PA isolates, isolates of AZLI-BID group, Day 0) was above 2050 µg/mL; in data set [1] (0 h, read-out: Maximum MIC of aztreonam for all PA isolates, isolates of AZLI-Pooled group, Day 0) it was above 2050 µg/mL; in data set [1] (0 h, read-out: Maximum MIC of aztreonam for all PA isolates, isolates of AZLI-TID group, Day 0), 1020 µg/mL; in data set [1] (0 h, read-out: Maximum MIC of aztreonam for all PA isolates, isolates of Placebo group, Day 0), 1020 µg/mL; in data set [1] (0 h, read-out: Minimum MIC of aztreonam for all PA isolates, isolates of AZLI-BID group, Day 0), at most 1 µg/mL; in data set [1] (0 h, read-out: Minimum MIC of aztreonam for all PA isolates, isolates of AZLI-Pooled group, Day 0) it was at most 1 µg/mL. In addition, the MIC in data set [1] (0 h, read-out: Minimum MIC of aztreonam for all PA isolates, isolates of AZLI-TID group, Day 0) was at most 1 µg/mL; in data set [1] (0 h, read-out: Minimum MIC of aztreonam for all PA isolates, isolates of Placebo group, Day 0), at most 1 µg/mL; in data set [3] (read-out: Maximum MIC of aztreonam for all PA isolates, isolates of AZLI group, baseline) it was above 2050 µg/mL; in data set [3] (read-out: Maximum MIC of aztreonam for all PA isolates, isolates of Placebo group, baseline), 256 µg/mL; in data set [3] (read-out: Minimum MIC of aztreonam for all PA isolates, isolates of Placebo group, baseline), at most 1 µg/mL. For the same molecule, the concentration at 10 min in data set [2] (Day 0) came to 530000 ng/g; in data set [2] (Day 14), 677000 ng/g; in data set [2] (Day 28), 451000 ng/g.

B1: Pulmozyme: Pulmozyme registration trial comparator (protein, UniProt P24855 23-282, looked up)
Deoxyribonuclease-1: LKIAAFNIQTFGETKMSNATLVSYIVQILSRYDIALVQEVRDSHLTAVGKLLDNLNQDAPDTYHYVVSEPLGRNSYKERYLFVYRPDQVSAVDSYYYDDGCEPCGNDTFNREPAIVRFFSRFTEVREFAIVPLHAAPGDAVAEIDALYDVYLDVQEKWGLEDVMLMGDFNAGCSYVRPSQWSSIRLWTSPTFQWLIPDSADTTATPTHCAYDRIVVAGMLLRGAVVPDSALPFNFQAAYGLSDQLAQAISDHYPVEVMLK
B1: the “FEV1 Change (percent change in FEV1 (L), comparison to control after 24 weeks of therapy)” value with CF patients (2.5 mg BID/24 weeks) is on record as 5.8 ± 0.7^c %; in the data set with CF patients (2.5 mg TID/24 weeks), 5.6 ± 0.7^c %.

Values taken from patent publication US7973029B2 (Gilead Sciences, Inc., priority 2007, dated 2011).
